Measured values taken from PMC2901518 (British Journal of Pharmacology, 2010).
Changes are numbered by the printed parent chain. Where two headings read alike, the source gives them in different places.

What was measured:
[1] = target: T1, rat Y1 receptor (association with β-arrestin2) (Rattus norvegicus, UniProt P21555); type: cell-based
T1 sequence (P21555 2-382): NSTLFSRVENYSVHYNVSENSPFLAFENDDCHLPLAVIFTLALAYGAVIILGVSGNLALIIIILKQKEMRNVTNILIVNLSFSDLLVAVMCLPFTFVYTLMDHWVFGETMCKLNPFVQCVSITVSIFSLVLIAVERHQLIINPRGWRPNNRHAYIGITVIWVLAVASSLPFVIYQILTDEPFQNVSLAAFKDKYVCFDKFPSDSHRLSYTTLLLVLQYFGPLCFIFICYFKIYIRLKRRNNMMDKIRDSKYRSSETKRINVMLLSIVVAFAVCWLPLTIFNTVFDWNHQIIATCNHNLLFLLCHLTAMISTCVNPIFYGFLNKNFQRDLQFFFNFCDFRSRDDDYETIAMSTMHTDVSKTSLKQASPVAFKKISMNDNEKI

Y1 receptor (Y1–YFP) = Y1 receptor (Y1–YFP) (Rattus norvegicus, UniProt P21555); type: cell-based
Y1 receptor = target: T2, Y1 receptor (Rattus norvegicus, UniProt P21555); assay: [125I]PYY competition binding, Y1/βarr2 membranes; settings: inhibition of [125I]PYY specific binding
T2 sequence (P21555 2-382): T1 sequence (P21555 2-382)

Y1 receptor ΔY346 = type: binding, rat
[2] = target: T3, Y1 receptor STA (S352A, T353A) (Rattus norvegicus, UniProt P21555, S352A/T353A); assay: [125I]PYY competition binding, Y1 STA/βarr2 membranes
T3 sequence (P21555 2-382 S352A/T353A): T1 sequence (P21555 2-382) with S351A, T352A

Y1 receptor T356A = target: T4, Y1 receptor T356A (Rattus norvegicus, UniProt P21555, T356A); assay: [125I]PYY competition binding, Y1 T356A/βarr2 membranes
T4 sequence (P21555 2-382 T356A): T1 sequence (P21555 2-382) with T355A

Y1 receptor S359A = target: T5, Y1 receptor S359A (Rattus norvegicus, UniProt P21555, S359A); assay: [125I]PYY competition binding, Y1 S359A/βarr2 membranes
T5 sequence (P21555 2-382 S359A): T1 sequence (P21555 2-382) with S358A

[3] = target: T6, Y1 receptor TSA (T361A, S362A) (Rattus norvegicus, UniProt P21555, S362A/T361A); assay: [125I]PYY competition binding, Y1 TSA/βarr2 membranes
T6 sequence (P21555 2-382 T361A/S362A): T1 sequence (P21555 2-382) with T360A, S361A

Y1 receptor STA, TSA = target: T7, Y1 receptor STA, TSA (Rattus norvegicus, UniProt P21555, S352A/S362A/T353A/T361A); assay: [125I]PYY competition binding, Y1 STA, TSA/βarr2 membranes
T7 sequence (P21555 2-382 S352A/T353A/T361A/S362A): T1 sequence (P21555 2-382) with S351A, T352A, T360A, S361A

[4] = target: T8, Y1 receptor T356A, S359A, TSA (Rattus norvegicus, UniProt P21555, S359A/S362A/T356A/T361A); assay: [125I]PYY competition binding, Y1 T356A, S359A, TSA/βarr2 membranes
T8 sequence (P21555 2-382 T356A/S359A/T361A/S362A): T1 sequence (P21555 2-382) with T355A, S358A, T360A, S361A

Y1 receptor 5A = target: T9, Y1 receptor 5A (Rattus norvegicus, UniProt P21555, S352A/S359A/S362A/T353A/T361A); assay: [125I]PYY competition binding, Y1 5A/βarr2 membranes
T9 sequence (P21555 1-382 S352A/T353A/S359A/T361A/S362A): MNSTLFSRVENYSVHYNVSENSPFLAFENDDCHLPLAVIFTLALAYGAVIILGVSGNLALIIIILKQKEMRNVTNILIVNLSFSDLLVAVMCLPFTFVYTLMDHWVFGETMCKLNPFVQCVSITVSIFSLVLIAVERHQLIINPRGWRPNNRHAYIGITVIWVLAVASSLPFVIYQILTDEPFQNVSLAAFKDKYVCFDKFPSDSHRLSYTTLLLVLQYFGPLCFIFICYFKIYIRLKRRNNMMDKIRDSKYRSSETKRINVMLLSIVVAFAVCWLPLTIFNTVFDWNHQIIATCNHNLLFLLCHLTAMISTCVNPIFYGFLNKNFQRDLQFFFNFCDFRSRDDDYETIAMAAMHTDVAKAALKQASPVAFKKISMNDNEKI

Y1 receptor 6A = target: T10, Y1 receptor 6A (Rattus norvegicus, UniProt P21555, S352A/S359A/S362A/T353A/T356A/T361A); assay: [125I]PYY competition binding, Y1 6A/βarr2 membranes
T10 sequence (P21555 1-382 S352A/T353A/T356A/S359A/T361A/S362A): T9 sequence (P21555 1-382 S352A/T353A/S359A/T361A/S362A) with T356A

Y2 receptor = target: T11, Y2 receptor (Homo sapiens, UniProt P49146); type: binding
T11 sequence (P49146 1-381): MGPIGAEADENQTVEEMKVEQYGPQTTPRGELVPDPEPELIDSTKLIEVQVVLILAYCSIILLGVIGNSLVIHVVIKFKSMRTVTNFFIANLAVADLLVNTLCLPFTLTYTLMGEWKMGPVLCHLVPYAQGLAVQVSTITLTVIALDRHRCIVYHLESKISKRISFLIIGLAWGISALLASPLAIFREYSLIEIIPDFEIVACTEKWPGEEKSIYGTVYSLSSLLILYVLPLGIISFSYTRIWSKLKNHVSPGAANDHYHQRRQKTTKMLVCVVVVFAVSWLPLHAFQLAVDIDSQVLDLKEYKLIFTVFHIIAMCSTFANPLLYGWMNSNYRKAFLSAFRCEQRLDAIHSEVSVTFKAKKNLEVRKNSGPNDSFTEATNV

Y2 receptor H155P = target: T12, Y2 receptor H155P (Homo sapiens, UniProt P49146, H155P); type: binding
T12 sequence (P49146 1-381 H155P): T11 sequence (P49146 1-381) with H155P

[5] = 30 min pre-incubation, NPY 60 min
[6] = example triplicate experiment, Figure 6
[7] = inhibition of [125I]PYY specific binding

Sequence of Y1 receptor (Y1–YFP) (P21555 whole entry): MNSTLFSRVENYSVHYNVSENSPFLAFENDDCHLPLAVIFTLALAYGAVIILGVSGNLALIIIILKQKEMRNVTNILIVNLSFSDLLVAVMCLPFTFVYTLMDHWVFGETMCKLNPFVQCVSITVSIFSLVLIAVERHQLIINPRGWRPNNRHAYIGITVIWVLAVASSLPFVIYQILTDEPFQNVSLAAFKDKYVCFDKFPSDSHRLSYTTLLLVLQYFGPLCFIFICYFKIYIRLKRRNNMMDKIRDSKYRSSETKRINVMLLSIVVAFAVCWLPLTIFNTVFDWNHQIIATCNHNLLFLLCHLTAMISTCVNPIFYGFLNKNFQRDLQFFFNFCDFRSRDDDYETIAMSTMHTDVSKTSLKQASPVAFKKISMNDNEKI

Molecule: N=C(N)NCCC[C@@H](NC(=O)C(c1ccccc1)c1ccccc1)C(=O)NCc1ccc(O)cc1 [BIBP3226, (R)-N2-(diphenylacetyl)-N-[(4-hydroxyphenyl)methyl]-argininamide]
- Schild slope, example experiment [1]: 1.1
- Schild slope, pooled [1]: 1.1 ± 0.1
- effect of antagonist alone on Y1/βarr2 BiFC, % of 1 µM NPY response [1]: −4.5 ± 10.0%

Molecule: homodimeric Ile-Glu-Pro-Dpr-Tyr-Arg-Leu-Arg-Tyr-CONH2 [GR231118]
- agonist activity in Y1–YFP endocytosis assay (Y1 receptor (Y1–YFP)): inactive
- Schild slope, pooled [1, 5]: 1.5 ± 0.2
- pA2 (Schild plot), pooled [1, 5]: 8.6 ± 0.2
- agonist activity for stimulation of Y1/βarr2 BiFC ([1]; 1 h incubation): inactive
- Schild slope, example experiment [1, 6]: 1.9
- pA2 (Schild plot), example experiment [1, 6]: 8.3

Molecule: Nc1nc2c(ncn2[C@@H]2O[C@H](COP(=O)(O)OP(=O)(O)OP(O)(O)=S)[C@@H](O)[C@H]2O)c(=O)[nH]1 [GTPγS, guanosine-5′-O-(3-thio)triphosphate]
- GTPγS 1 µM inhibition (%), Y1 (Y1 receptor; 1 µM GTPγS): 58.6 ± 4.1%
- GTPγS pIC50, Y1 (Y1 receptor; 30 µg·mL−1 saponin): 9.05 ± 0.21
- GTPγS 1 µM inhibition (%), Y1 ΔY346 (Y1 receptor ΔY346; 1 µM GTPγS): 61.9 ± 8.8%
- GTPγS pIC50, Y1 ΔY346 (Y1 receptor ΔY346; [7]): 8.57 ± 0.04
- GTPγS 1 µM inhibition (%), Y1 STA ([2]; 1 µM GTPγS): 61.4 ± 4.0%
- GTPγS pIC50, Y1 STA [2, 7]: 9.00 ± 0.15
- GTPγS 1 µM inhibition (%), Y1 T356A (Y1 receptor T356A; 1 µM GTPγS): 48.3 ± 4.7%
- GTPγS pIC50, Y1 T356A (Y1 receptor T356A; [7]): 8.97 ± 0.17
- GTPγS 1 µM inhibition (%), Y1 S359A (Y1 receptor S359A; 1 µM GTPγS): 54.7 ± 3.5%
- GTPγS pIC50, Y1 S359A (Y1 receptor S359A; [7]): 9.18 ± 0.08
- GTPγS 1 µM inhibition (%), Y1 TSA ([3]; 1 µM GTPγS): 51.4 ± 4.9%
- GTPγS pIC50, Y1 TSA [3, 7]: 9.40 ± 0.10
- GTPγS 1 µM inhibition (%), Y1 STA, TSA (Y1 receptor STA, TSA; 1 µM GTPγS): 58.2 ± 5.0%
- GTPγS pIC50, Y1 STA, TSA (Y1 receptor STA, TSA; [7]): 9.03 ± 0.26
- GTPγS 1 µM inhibition (%), Y1 T356A, S359A, TSA ([4]; 1 µM GTPγS): 53.0 ± 7.4%
- GTPγS pIC50, Y1 T356A, S359A, TSA [4, 7]: 9.21 ± 0.20
- GTPγS 1 µM inhibition (%), Y1 5A (Y1 receptor 5A; 1 µM GTPγS): 55.7 ± 3.4%
- GTPγS pIC50, Y1 5A (Y1 receptor 5A; [7]): 8.81 ± 0.28
- GTPγS 1 µM inhibition (%), Y1 6A (Y1 receptor 6A; 1 µM GTPγS): 63.2 ± 1.2%
- GTPγS pIC50, Y1 6A (Y1 receptor 6A; [7]): 9.04 ± 0.02
- GTPγS 1 µM inhibition (%), Y2 (Y2 receptor; 1 µM GTPγS): 73.8 ± 3.5%
- GTPγS pIC50, Y2 (Y2 receptor; [7]): 9.19 ± 0.11
- GTPγS 1 µM inhibition (%), Y2 H155P (Y2 receptor H155P; 1 µM GTPγS): 70.2 ± 5.3%
- GTPγS pIC50, Y2 H155P (Y2 receptor H155P; [7]): 9.17 ± 0.05
